What was measured:
GFAP, CD14 and MMP9 mRNA = test: qPCR of molecular markers in peri-infarct tissue after photothrombotic focal ischemia; assay type: in vivo, mice; settings: 3 days post-stroke
Experimental: Tissue from the peri-infarct area was collected and snap-frozen 12-72 hrs post stroke and RNA was extracted using a RNA mini kit (Qiagen) following the instructions from the manufacturer. Extracted RNA was treated with DNAse using Turbo DNA-free kit (Ambion), all according to the manufacturer's protocol. The reverse transcription was performed using gScript™ cDNA SuperMix (Quanta Biosciences, Gaithersburg, MD, USA) on a standard PCR machine (25° C. for 5 min, 42° C. for 30 min, 85° C. for 5 min) and cDNA stored at −20° C. until further processing.
qPCR was performed in 96-well plates (Agilent Technologies, Santa Clara, CA, USA) mixing PerfeCTa SYBR Green FastMix (Quanta Biosciences), nuclease free water (Qiagen, West Sussex, UK), and primers (TAG Copenhagen A/S (Copenhagen, Denmark). The PCR was performed with an initial denaturation step of 95° C. for 30 s, followed by 40 cycles of 5 s at 95° C., 60° C. for 15 s and 72° C. for 10 s. To assure single-product amplification, a dissociation curve analysis was performed consisting of 60 s at 95° C., 30 s at 55° C. and 30 s at 95° C. The qPCR was performed using the Agilent Mx3005P qPCR system (Agilent Technologies), and the corresponding MxPro software was used to determine the Ct values. The ΔCt values were calculated using 2 (Reference Ct−Target Ct).
To investigate the protective mechanisms against brain damage following a focal ischemic insult, mRNA expression levels of the markers GFAP, CD14 and MMP9 were measured in the brain tissue surrounding the ischemic core 3 days post-stroke.

[1] = target: T1, CAMK2A pThr286 autophosphorylation (Mus musculus, UniProt P11798); test: pThr286 autophosphorylation in dissected mouse cortex after photothrombosis (Western blot); assay type: in vivo, mice; settings: 175 mg/kg i.p.; cortex tissue; pThr286 normalized to total CAMK2A
T1 construct: cortical tissue isolated from mice subjected to photothrombotic injury; from tissue; host or cells: mouse cortex (infarct core), C57BL/6J, after in vivo dosing
T1 sequence (P11798 whole entry): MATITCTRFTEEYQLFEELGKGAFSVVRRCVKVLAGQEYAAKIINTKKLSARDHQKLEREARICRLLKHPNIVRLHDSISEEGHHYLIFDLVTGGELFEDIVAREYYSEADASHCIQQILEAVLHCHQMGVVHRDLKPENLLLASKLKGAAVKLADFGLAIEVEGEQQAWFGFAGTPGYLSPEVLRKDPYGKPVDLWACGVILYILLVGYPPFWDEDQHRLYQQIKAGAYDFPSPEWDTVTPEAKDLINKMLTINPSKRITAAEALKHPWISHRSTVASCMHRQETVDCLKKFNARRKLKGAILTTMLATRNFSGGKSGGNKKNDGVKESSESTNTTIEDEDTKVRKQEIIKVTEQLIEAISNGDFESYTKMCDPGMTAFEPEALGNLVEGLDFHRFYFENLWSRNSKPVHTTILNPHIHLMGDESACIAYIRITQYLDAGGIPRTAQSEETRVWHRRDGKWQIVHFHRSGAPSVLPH
Experimental: Along with the standard protocol for photothrombotic focal ischemia, mice were treated with either saline or 175 mg/kg A (i.p.) 30 min after the injury. Three hours after the injury, mice were sacrificed, brains were dissected out and immediately submerged in ice-cold PBS supplemented with 1% phosphatase and protease inhibitors (Phosphatase inhibitor cocktail 3 #P0044 (Sigma), Phosphatase inhibitor cocktail 2 #P5726 (Sigma) and complete EDTA protease inhibitors (Roche) for 5 min. Cortex tissue from the infarct core region (i.e. 1.5 mm right of bregma including the primary motor cortex with a diameter of 2 mm) was dissected and snap-frozen on dry ice. Tissue homogenization was performed using 1×RIPA buffer supplemented with phosphatase and protease inhibitors and a Bullet Blender. Autophosphorylation was assessed by Western blot analysis, comparing the total level of CAMK2A (quantified using anti-CAMK2A, #NB100-1983, Novus Biologicals) to the level of phosphorylated CAMK2A (pThr286: #12716S, Cell Signalling Technology; goat anti-rabbit HRP: #PI-1000 X0126, Vector). […]
To this end, sham mice or mice were treated with either saline or 175 mg/kg A (i.p.) 3 hrs after the injury. […] Autophosphorylation was assessed by Western blot analysis and levels of pThr286 CAMK2A normalized to total CAMK2A to detect changes in autophosphorylation.

MCP-1, IL-6 and IL-1a = test: Quantification of cytokines in plasma after photothrombotic focal ischemia; assay type: in vivo, mice; settings: 4 hrs after focal ischemia
Experimental: Detection of MCP-1 (monocyte chemotactant protein-1), IL-6 (interleukin-6) and IL-1a (interleukin-1a) was performed using a LEGENDplex assay kit according to the manufacturers' instructions (BioPlex, BioLegend, San Diego, CA, USA).
To evaluate the inflammatory response at early time points, blood samples were collected 4 hrs after induction of a focal ischemic event.

GABAB receptor [2] = target: T2, GABAB receptor (Rattus norvegicus, UniProt Q9Z0U4); test: 3H-GABA binding assay for GABAB, rat cortex membranes; settings: up to concentrations of 1 mM
T2 construct: using crude synaptic membranes prepared from rat cortex; from tissue; host or cells: rat cortex, crude synaptic membranes
T2 sequence (Q9Z0U4 17-960 limits assumed): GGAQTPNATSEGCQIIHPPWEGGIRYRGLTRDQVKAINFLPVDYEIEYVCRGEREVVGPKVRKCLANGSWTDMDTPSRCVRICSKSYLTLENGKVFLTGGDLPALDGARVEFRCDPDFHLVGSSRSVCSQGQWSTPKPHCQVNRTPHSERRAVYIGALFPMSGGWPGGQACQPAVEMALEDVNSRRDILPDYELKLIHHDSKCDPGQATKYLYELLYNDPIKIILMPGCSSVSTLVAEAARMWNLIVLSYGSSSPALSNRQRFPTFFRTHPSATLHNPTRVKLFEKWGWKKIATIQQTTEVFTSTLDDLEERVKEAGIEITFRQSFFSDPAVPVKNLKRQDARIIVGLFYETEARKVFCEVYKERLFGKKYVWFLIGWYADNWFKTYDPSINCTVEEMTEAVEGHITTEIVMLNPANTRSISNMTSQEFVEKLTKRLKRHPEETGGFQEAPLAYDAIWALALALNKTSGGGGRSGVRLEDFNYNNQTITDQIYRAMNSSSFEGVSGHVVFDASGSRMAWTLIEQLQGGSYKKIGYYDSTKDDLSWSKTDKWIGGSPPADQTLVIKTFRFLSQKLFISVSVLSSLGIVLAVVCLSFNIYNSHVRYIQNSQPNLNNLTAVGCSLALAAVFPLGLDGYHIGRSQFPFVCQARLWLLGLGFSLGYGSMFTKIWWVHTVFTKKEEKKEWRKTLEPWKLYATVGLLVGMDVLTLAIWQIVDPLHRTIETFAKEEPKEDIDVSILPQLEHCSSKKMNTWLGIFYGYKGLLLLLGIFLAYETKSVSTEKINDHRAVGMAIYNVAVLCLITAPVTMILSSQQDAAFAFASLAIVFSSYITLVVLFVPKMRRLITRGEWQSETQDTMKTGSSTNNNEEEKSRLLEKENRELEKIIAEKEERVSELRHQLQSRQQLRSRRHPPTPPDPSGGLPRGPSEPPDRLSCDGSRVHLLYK
T2 sequence (O88871 41-940 partner): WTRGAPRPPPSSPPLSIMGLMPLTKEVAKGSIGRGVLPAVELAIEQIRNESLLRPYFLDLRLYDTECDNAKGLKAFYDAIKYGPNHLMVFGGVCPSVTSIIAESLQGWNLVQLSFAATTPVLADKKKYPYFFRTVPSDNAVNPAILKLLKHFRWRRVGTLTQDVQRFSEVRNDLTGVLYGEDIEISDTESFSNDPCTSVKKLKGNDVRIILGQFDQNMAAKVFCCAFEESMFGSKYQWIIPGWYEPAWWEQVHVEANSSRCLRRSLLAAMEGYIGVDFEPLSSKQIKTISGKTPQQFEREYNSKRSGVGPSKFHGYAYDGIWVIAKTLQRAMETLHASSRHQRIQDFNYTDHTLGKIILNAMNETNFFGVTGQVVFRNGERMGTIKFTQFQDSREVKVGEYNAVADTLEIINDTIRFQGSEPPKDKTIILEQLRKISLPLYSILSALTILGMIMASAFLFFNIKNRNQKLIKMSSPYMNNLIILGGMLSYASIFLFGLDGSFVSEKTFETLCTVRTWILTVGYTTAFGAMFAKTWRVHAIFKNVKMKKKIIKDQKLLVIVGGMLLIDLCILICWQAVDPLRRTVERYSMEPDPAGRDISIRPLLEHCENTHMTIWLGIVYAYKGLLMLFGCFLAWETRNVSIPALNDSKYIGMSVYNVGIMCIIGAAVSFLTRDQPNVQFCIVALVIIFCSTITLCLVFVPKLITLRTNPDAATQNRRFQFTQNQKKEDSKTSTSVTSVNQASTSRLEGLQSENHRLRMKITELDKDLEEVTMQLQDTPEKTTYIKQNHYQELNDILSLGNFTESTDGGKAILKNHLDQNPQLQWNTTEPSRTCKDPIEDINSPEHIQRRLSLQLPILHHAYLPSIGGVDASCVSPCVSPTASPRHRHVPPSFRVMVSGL
Experimental: Following incubation by rapid filtration through GF/C unifilters (PerkinElmer, Boston, MA, USA), using a 96-well Packard cell-harvester (PerkinElmer) and three fast washes with ice-cold binding buffer, microscint scintillation fluid (PerkinElmer) was added to the dried filters, and the amount of filter-bound radioactivity was quantified in a Packard TopCount microplate scintillation counter (PerkinElmer). […] The binding reactions were terminated by rapid filtration through GF/C filters (Whatman), soaked in 0.1% polyethylene imine, using a Brandell 48-well harvester and rapid washing with ice-cold binding buffer. […] Data are presented as % specific binding (of control), and IC50 or Ki values calculated by means of non-linear regression curve-fitting and the Cheng-Prusoff equation, respectively.

GABAB receptor [3] = target: T2, GABAB receptor; settings: cited from earlier work
[4] = tested on: wild-type and GABAB receptor knock-out mice; test: Temperature recording (hypothermia) in mice; assay type: in vivo; settings: 500 mg/kg i.p.; wild-type or GABAB knock-out mice
Experimental: Mice were pre-treated with saline injections (0.9% saline) i.p. for 4 days prior to the experiment to minimize stress on the day of the experiment. Experiments were conducted in a quiet room, in which mice were left undisturbed for at least two hrs prior to the experiment. After the i.p. injections, mice were left in their home cages for two hrs, had core body temperature recorded, and were then euthanized. The core body temperature was measured rectally by a thermometer (model DM 852; ELLAB Instruments; Copenhagen, Denmark) via a lubricated thermistor probe (model PRA-22002-A, 2.2 mm diameter; ELLAB Instruments). Mice were held at the base of the tail and measured until a stable temperature measurement was obtained.
By contrast, compound A had no effect on hypothermia in either wild-type or knock-out mice.

[5] = tested on: proton-coupled transporters (MCTs) endogenously present in tsA201 cells; test: MCT-mediated uptake in tsA201 cells (BCECF pH-sensitive dye); assay type: cell-based; settings: 2 min, read-out: EC50, concentration-dependent decrease in intracellular pH
Experimental: Uptake was measured using the cell-permeable pH-sensitive dye 2′,7′-Bis(2-carboxyethyl)-5(6)-carboxyfluorescein acetoxymethyl ester (BCECF-AM) (Molecular Probes), utilizing the endogenous expression of MCTs in tsA201 cells. The day before the assay, cells were plated (50,000 cells/well) in black poly-D-lysin-coated 96-well plates with clear bottom (VWR, Radnor, PA, USA). […] Cells were then washed twice with 100 μl buffer and the cell plate assayed at 37° C. in a FlexStation 3 reader (Molecular Devices).
Cells (tsA201; related to HEK293-T) known to express MCTs were grown in 96-well plates and exposed to compounds and pH-decreased measured for 2 min.

[6] = 175 mg/kg 30 min after ischemia

## O=C(O)C1=CC(O)CC1 (stereo not drawn) [Compound A, 3-hydroxycyclopent-1-enecarboxylic acid]
GFAP, CD14 and MMP9 mRNA; 17.5 mg/kg, vs saline
  MMP9 mRNA levels: significantly lower
GFAP, CD14 and MMP9 mRNA; [6]
  CD14 mRNA levels: markedly lowered
  MMP9 mRNA levels: markedly lowered
GFAP, CD14 and MMP9 mRNA; peri-infarct tissue, vs saline
  GFAP mRNA levels: not different
[1]
  decrease in pThr286 autophosphorylation: 73%
MCP-1, IL-6 and IL-1a
  MCP-1 plasma levels: tendency towards a decrease
MCP-1, IL-6 and IL-1a; vs saline
  IL-1a plasma levels: did not significantly affect
  IL-6 plasma levels: significantly lowered
GABAB receptor [2]
  inhibition of 3H-GABA binding to GABAB receptor: no ability to compete
GABAB receptor [3]
  affinity for the GABAB binding site: does not display any affinity
[4]
  effect on body temperature (hypothermia): no effect
[5]
  EC50: 8.2 mM
